“Also recorded” adds a separate entry of the source.
Tests used:
[1] = system: set of 47 proteins; assay: Off-target safety profiling; details: tested at 2 µM
[2] = system: G-361 cells; assay: cells; details: Homo sapiens, G-361, 72 h, read-out: Cell proliferation IC50 ± SD
[3] = system: MCF7 cells; assay: cells; details: Homo sapiens, MCF7, 72 h, read-out: Cell proliferation IC50 ± SD
[4] = system: A549 cells; assay: cells; details: Homo sapiens, A549, 72 h, read-out: Cell proliferation IC50 ± SD
[5] = system: H2AX phosphorylation in HeLa cells; assay: Immunodetection of H2AX phosphorylation; format: cell-based, human; details: 90 minutes, at IC50 concentration
[6] = molecular target: human topoIIβ (Homo sapiens, UniProt Q02880); assay: DNA relaxation catalyzed by human topoIIβ; format: biochemical
[7] = molecular target: T1, human topoIIα (Homo sapiens, UniProt P11388); assay: DNA relaxation catalyzed by human topoIIα; format: biochemical; details: ratio of DNA relaxation IC50 values
[8] = system: HeLa cells; assay: cells; details: Homo sapiens, 72 h, read-out: Cell proliferation IC50 ± SD
[9] = system: relaxed pBR322 DNA; assay: DNA intercalation; format: binding; details: 0-25 µM compound
[10] = molecular target: T1, human topoIIα; assay: DNA cleavage assay; format: biochemical; details: 0-200 µM compound
[11] = molecular target: hERG channel (Homo sapiens, UniProt Q12809); assay: Off-target safety profiling, hERG channel; details: tested at 2 µM
[12] = system: A375 cells; assay: cells; details: Homo sapiens, A-375, 72 h, read-out: Cell proliferation IC50 ± SD
[13] = molecular target: T1, human topoIIα; assay: ATP hydrolysis; format: biochemical; details: 0-25 µM compound
[14] = mouse, in vivo, ip, 10 mg/kg

| IC50 [3] | IC50 [4] | IC50 [6] | specificity for topoIIα over topoIIβ [7] | IC50 [8] | IC50 [12] | inhibition of topoIIα-catalyzed ATP hydrolysis ([13]; in the absence of DNA) | inhibition of topoIIα-catalyzed ATP hydrolysis ([13]; in the presence of DNA) | brain penetration [14] | SMILES | off-target activity (agonist and antagonist) on 47 proteins [1] | IC50 [2] | phosphorylation of H2AX (reporter of DNA damage) [5] | DNA intercalation [9] | ability to increase enzyme-mediated DNA cleavage [10] | activity vs the hERG channel [11] |
| --- | --- | --- | --- | --- | --- | --- | --- | --- | --- | --- | --- | --- | --- | --- | --- |
| 15.8 ± 1.3 µM | 17.1 ± 8.7 µM | ~100 µM | ~ 50 fold | 38.2 ± 9.1 µM | 12.6 ± 0.7 µM | none | little ability to inhibit | able to reach the brain | CN(C)c1ccc(Nc2nc(-c3ccncc3)nc3c2CC(N)CC3)cc1 (stereo not shown) [Compound 14, N4-[4-(dimethylamino)phenyl]-2-(4-pyridyl)-5,6,7,8-tetrahydroquinazoline-4,6-diamine] | no noteworthy activity | 8.1 ± 2.9 µM | did not induce the phosphorylation of H2AX | did not show this behavior; also recorded: does not intercalate into DNA | no ability to increase levels of enzyme-mediated DNA cleavage | no noteworthy activity |
| 16.2 ± 2.6 µM | 17.8 ± 0.6 µM | – | – | 21.8 ± 4.6 µM | 10.8 ± 0.1 µM | – | – | – | N[C@@H]1CCc2nc(-c3ccncc3)nc(Nc3cccc(F)c3)c2C1 [Compound 4, (6S)-N4-(3-fluorophenyl)-2-(4-pyridyl)-5,6,7,8-tetrahydroquinazoline-4,6-diamine] | – | 1.8 ± 0.6 µM | – | – | – | – |
| 13.9 ± 2.3 µM | 19.4 ± 1.8 µM | – | – | 17 ± 1.9 µM | 9.9 ± 0.1 µM | – | – | – | NC1CCc2nc(-c3ccncc3)nc(Nc3cccc(F)c3)c2C1 (stereo not shown) [Compound 1, N4-(3-fluorophenyl)-2-(4-pyridyl)-5,6,7,8-tetrahydroquinazoline-4,6-diamine] | – | 1.4 ± 0.4 µM | – | – | – | – |
| 14.2 ± 2.5 µM | 23.3 ± 2.3 µM | – | – | 17.1 ± 3.2 µM | 10.7 ± 0.1 µM | – | – | – | N[C@H]1CCc2nc(-c3ccncc3)nc(Nc3cccc(F)c3)c2C1 [Compound 3, (6R)-N4-(3-fluorophenyl)-2-(4-pyridyl)-5,6,7,8-tetrahydroquinazoline-4,6-diamine] | – | – | – | – | – | – |
| 16 ± 0.5 µM | 22.9 ± 6.5 µM | – | – | 20.8 ± 4.5 µM | 12.3 ± 1.8 µM | – | – | – | NC1CCc2nc(-c3ccncc3)nc(Nc3ccc(F)cc3)c2C1 (stereo not shown) [Compound 10, N4-(4-fluorophenyl)-2-(4-pyridyl)-5,6,7,8-tetrahydroquinazoline-4,6-diamine] | – | 3 ± 0.7 µM | – | – | – | – |
| 15.8 ± 1.4 µM | 18 ± 0.1 µM | – | – | 17.2 ± 2.6 µM | 15.1 ± 4.8 µM | – | – | – | COc1cccc(Nc2nc(-c3ccncc3)nc3c2CC(N)CC3)c1 (stereo not shown) [Compound 11, N4-(3-methoxyphenyl)-2-(4-pyridyl)-5,6,7,8-tetrahydroquinazoline-4,6-diamine] | – | 6.6 ± 3.1 µM | – | – | – | – |
| 8.9 ± 1.6 µM | 2.4 ± 2 µM | – | – | – | 0.5 ± 0.1 µM | – | – | – | COc1cc([C@@H]2c3cc4c(cc3[C@@H](O[C@@H]3O[C@@H]5CO[C@@H](C)O[C@H]5[C@H](O)[C@H]3O)[C@H]3COC(=O)[C@H]23)OCO4)cc(OC)c1O [Etoposide, etoposide, reference compound] | – | 3.8 ± 3 µM | – | – | – | – |
